Source: US8895610B1, “Platinum (IV) compounds targeting zinc finger domains” (priority 2007, dated 2014)
Several values for one entry are separate records, joined by “and”; a condition that tells them apart may be missing. Equal values may be shown once. Entries after “also recorded” stand apart in the source; their conditions may differ.

Key:
[1] = tested on: HIV-Infected Human Monocyte-Derived Macrophages; experiment: Reverse transcription rates in HIV-infected monocyte-derived macrophages; assay type: cell-based; conditions: 1 to 10 uM; vs untreated and mock-infected MDM
Description: Primary human monocyte-derived macrophages (MDM) were prepared by culturing elutriated monocytes in RPMI-1640 medium, supplemented with 10% fetal bovine serum for 5 to 7 days on ultra-low attachment plates. MDMs were detached from the plates and plated onto tissue culture dishes or microscope culture chambers. MDMs in 6-well plates were infected with WT pNL(AD8) virus stocks and 2×10^6 reverse transcriptase cpm/well. Various incubated concentrations of platinum(IV) compound ranging from 1 to 10 uM were compared with untreated (no drug) and mock-infected MDM reverse transcription rates (counts per minute/microliter). Medium in the MDM cultures was changed every two days and an aliquot was reserved for reverse transcriptase (RT) activity at each time point (Gousset, 2008). […] This activity parallels that observed by Mark-Danieli et al. (2005) by certain zinc finger mutations of the nucleocapsid protein; other investigators have reported decreases or no changes in transcription rates with various mutations (Ramboarina, 2004; Houzet, 2008). […] Increasing the efficiency of reverse transcription initiation is detrimental to viral replication (Thomas and Gorelick, 2008). One role of nucleocapsid proteins is regulation of the transcription cadence in virally-infected cells.

Petaluma strain of FIV = experiment: Plasma viremia by reverse transcription TaqMan PCR in FIV-infected cats; assay type: in vivo, domestic cat; conditions: for Plasma Viremia: cats BR, CF
Source text: Currently available antiretrovirals require daily dosing, often in combination therapy. Two 12^+-year old specific-pathogen-free domestic female cats infected >5 years with the Petaluma strain of FIV were used in this study. The animals were housed individually in a climatized animal facility in accordance with standards, had ad libitum access to fresh water and food, and were sedated with Tiletamine/Zolazepam intramuscularly prior to any procedure. The cats weighed from 3-5 kg each. Three weeks before initiation of the treatment and at scheduled times, samples were collected for hematological and virological analyses. The cats received 9 intravenous doses of 3 mg/kg FX101 over 4.5 weeks (2× weekly).
Viral RNA extracted from plasma using the QIAmp viral RNA kit (QIAGEN), was reverse transcribed and amplified by reverse transcription TaqMan PCR. Reverse transcription and amplification conditions, and minimum detection limits of the assay (100-200 copies/mL plasma) are described elsewhere (Pistello, 2005). This measure represents viral presence in circulation, reflecting potential infectivity and productive synthesis of viral particles.
0.1664 g FX101 was dissolved into 30 mL 15% DMSO/PBS and stirred overnight. This solution was sterile-filtered using a 20-mL syringe fitted with a […] Sarstedt filter. Each dose was administered under anesthesia, a 1.5 mL venous injection using a 2.5 mL syringe fitted with a 22G 1¼-in. needle (latex free). Feline BR weighed 3.2 kg at the start of the experiment and CF weighed 2.8 kg. Each received 8.3 mg drug with each dose, so dosages were 2.6 mg/kg for BR and 3.0 mg/kg for CF.
Table 8 illustrates measures of plasma viremia from the two test cats, “BR” and […] relative to the treatment period, receiving intravenous injections of FX101 twice weekly over four weeks. Each blood sample was taken immediately prior to drug injection for the scheduled dosing, August 23-September 30. This provided two pretreatment samples as baseline measures, 3 samples during treatment, and two post-treatment samples; note the addition of an unscheduled sample October 20. […] Following the last dosage, the first post-treatment results were ambiguous, with one cat experiencing a strong rebound and the other remaining below detection. This difference may be attributable to a uterine infection experienced by cat “BR” at this time—a historically frequent occurrence for this cat. It is well known that lipopolysaccharides (LPS) induce lentiviral replication, and this may therefore be related.

`[NH2][Pt]([NH2])([Cl])([Cl])([Cl])[N+](=O)[O-]` [FX101, nitrotrichlorodiamminoPt(IV)] was tested, and the reverse transcription rate [1] was “do not inhibit reverse transcription in this system, but rather increase this rate”, the “plasma viremia after treatment (in words)” value (Petaluma strain of FIV; 4 weeks to 9 months past the final dosage, no additional therapies) was “significantly lower viremia as compared with baseline measures; also recorded: undetectable plasma viremia” and the “Plasma Viremia” value (Petaluma strain of FIV; Aug. 2, 2007 pretreatment) was 2582 Viral RNA Copies/mL Plasma and 4282 Viral RNA Copies/mL Plasma. For the same compound, the “Plasma Viremia” value (Petaluma strain of FIV; Aug. 23, 2007 start of treatment period, blood collected prior to dosing) was 8841 Viral RNA Copies/mL Plasma and 6974 Viral RNA Copies/mL Plasma, the “Plasma Viremia” value (Petaluma strain of FIV; Aug. 30, 2007 treatment period, i.v. twice weekly) was 1300 Viral RNA Copies/mL Plasma and 1249 Viral RNA Copies/mL Plasma and the “Plasma Viremia” value (Petaluma strain of FIV; Feb. 1, 2006 pretreatment) was 6557 Viral RNA Copies/mL Plasma and 3864 Viral RNA Copies/mL Plasma. The “Plasma Viremia” value (Petaluma strain of FIV; Jun. 12, 2008 (+38 wk) post treatment) was <200 Viral RNA Copies/mL Plasma, the “Plasma Viremia” value (Petaluma strain of FIV; Mar. 1, 2006 pretreatment) was 3072 Viral RNA Copies/mL Plasma and 2819 Viral RNA Copies/mL Plasma and the “Plasma Viremia” value (Petaluma strain of FIV; Mar. 27, 2008 (+27 wk) post treatment) was <200 Viral RNA Copies/mL Plasma. For the same compound, the “Plasma Viremia” value (Petaluma strain of FIV; Oct. 20, 2007 (+4 wk) post treatment) was 898 Viral RNA Copies/mL Plasma and 1057 Viral RNA Copies/mL Plasma, the “Plasma Viremia” value (Petaluma strain of FIV; Sep. 4, 2007 treatment period, i.v. twice weekly) was <100 Viral RNA Copies/mL Plasma and the “Plasma Viremia” value (Petaluma strain of FIV; Sep. 20, 2007 treatment period, i.v. twice weekly) was <100 Viral RNA Copies/mL Plasma. For the same compound, the “plasma viremia during treatment (in words)” value (Petaluma strain of FIV; both cats, over two weeks of twice weekly i.v. injections) was “significant reduction in plasma viremia”.
